“Also recorded” adds a separate entry of the source.

One assay has as its target D3 DAR (Homo sapiens, UniProt P35462). As to the kind of experiment: [3H]-methylspiperone radioligand binding assay. Particulars: indicated concentrations, FIG. 1B. On the procedure: Compounds were tested for their ability to compete with the orthosteric radioligand [^3H]-methylspiperone for binding to the D3 DAR using HEK cells transiently transfected with the D3 DAR as described in the detailed protocol below presented in Table 5. Cells were cultured in Dulbecco's modified Eagle's Medium (Corning, catalogue no. 10-013) containing 10% FBS, 1,000 units/mL Penicillin, […] Streptomycin, 100 mM sodium pyruvate, 1 μg/mL Gentamicin, and […] G418. All cells were maintained at 37° C. in 5% CO2 and 90% humidity. For radioligand binding assays cells were removed mechanically using calcium-free Earle's balanced salt solution (EBSS). Intact cells were collected by centrifugation and then lysed with 5 mM Tris-HCl and 5 mM MgCl2 at pH 7.4. Homogenates were centrifuged at 30,000×g for 30 minutes. The membranes were re-suspended in EBSS (US Biological, catalogue no. E0249-05) pH 7.4 to a concentration of 16 μg/mL. For competition binding studies, membrane preparations were incubated for 90 minutes at room temperature with various concentrations of compound and a single concentration of [^3H]-methylspiperone (Perkin Elmer, NET856) in a reaction volume of […]. Non-specific binding was determined in the presence of 4 μM (+)-butaclamol (Sigma-Aldrich, catalogue no. D033). Bound ligand was separated from unbound by filtration through GF/C filters using a PerkinElmer cell harvester and quantified on a Top-count (PerkinElmer). Ki values were determined using Cheng-Prusoff equation from observed IC50 values and ligand Kd values from separate saturation experiments.

Assay [1] deals with 45 GPCRs, ion channels, and neurotransmitter transporters. As to the kind of experiment: PDSP radioligand binding panel. To be noted: 10 μM. The protocol: Cmp. 1 was tested as both an agonist (FIG. 5A) or an antagonist (FIG. 5B) at a single high concentration (30 μM) on 168 different GPCRs in the DiscoverX gpcrMAX™ β-arrestin recruitment assay panel (FIGS. 5A and 5B). Assay results are presented as the mean percent activation of indicated GPCRs (for n=2 replicates). For a full description of the DiscoverX gpcrMAX™-GPCR assay panel and methods (see: http://www.DiscoverX.com). […] Data were provided by the National Institute of Mental Health (NIMH) Psychoactive Drug Screening Program (PDSP) (University of North Carolina, Chapel Hill, NC). For experimental details including radioligands used and associated Kd values for each individual target, refer to the PDSP website: http://pdsp.med.unc.edu/. While Cmp. […] The 5-HT6 receptor was not present in the functional panels, however, subsequent testing found Cmp.

The next assay concerns the target D2 DAR (Homo sapiens, UniProt P14416). Put plainly: cAMP CAMYEL biosensor assay, D2 DAR. In kind it is cell-based. To be noted: FIG. 3C right. The protocol:
cAMP CAMYEL biosensor assay: HEK293 cells transiently expressing the D2 DAR or D3 DAR and the CAMYEL cAMP biosensor (yellow fluorescence protein-Epac-Rluc) were harvested with EBSS, plated in 96-well white plates at 20,000 cells/well in DPBS and incubated at room temperature for 45 min. […] BRET signal was determined by quantifying and calculating the ratio of the light emitted by mVenus (525 nm) over that emitted by RLuc8 (485 nm) using a PHERAstar FSX Microplate Reader (BMG Labtech).

D3 DAR, sequence (P35462 whole entry): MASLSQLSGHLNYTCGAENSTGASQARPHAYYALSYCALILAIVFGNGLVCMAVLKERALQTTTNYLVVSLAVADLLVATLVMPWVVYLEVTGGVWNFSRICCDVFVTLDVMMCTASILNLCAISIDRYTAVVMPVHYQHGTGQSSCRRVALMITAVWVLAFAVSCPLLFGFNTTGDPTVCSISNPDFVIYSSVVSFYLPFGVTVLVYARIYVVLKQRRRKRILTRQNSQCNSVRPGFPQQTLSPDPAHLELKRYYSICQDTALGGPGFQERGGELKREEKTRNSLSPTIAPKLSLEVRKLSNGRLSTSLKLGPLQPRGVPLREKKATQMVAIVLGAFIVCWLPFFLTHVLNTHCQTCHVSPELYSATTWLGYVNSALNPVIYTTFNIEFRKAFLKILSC
D2 DAR, sequence (P14416 whole entry): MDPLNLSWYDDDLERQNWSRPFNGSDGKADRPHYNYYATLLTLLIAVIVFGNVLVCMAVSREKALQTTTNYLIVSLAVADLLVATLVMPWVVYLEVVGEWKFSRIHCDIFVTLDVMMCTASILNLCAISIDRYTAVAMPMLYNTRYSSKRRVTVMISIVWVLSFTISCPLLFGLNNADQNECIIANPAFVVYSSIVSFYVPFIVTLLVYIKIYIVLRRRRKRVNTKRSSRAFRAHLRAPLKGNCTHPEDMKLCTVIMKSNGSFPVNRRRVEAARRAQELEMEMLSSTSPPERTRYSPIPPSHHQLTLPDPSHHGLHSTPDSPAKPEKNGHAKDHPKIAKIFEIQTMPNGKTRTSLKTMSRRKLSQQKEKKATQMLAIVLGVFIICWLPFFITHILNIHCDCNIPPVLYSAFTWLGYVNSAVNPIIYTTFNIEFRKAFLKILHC

Regarding `Cc1ccc(NS(=O)(=O)c2c(C)[nH]c(C)c2C(=O)N2CCCC2)cc1Cl` [Cmp. 1], at D3 DAR, the “inhibition of [3H]-methylspiperone binding to the D3 DAR” value is “lacks ability to inhibit the binding”. Besides, in assay [1], the “off-target affinity / displacement in radioligand binding panel” value was “limited off-target affinity; also recorded: minimal displacement at only the H1 histamine and 5-HT6 serotonin receptors”. The “antagonist activity at the D2 DAR, cAMP CAMYEL” value on D2 DAR is reported as “lacked antagonist activity”.

Values taken from US20240336604A1 (THE UNITED STATES OF AMERICA, AS REPRESENTED BY THE …, priority 2021, published 2024).
